Residues, ends and D or L forms follow the SMILES beside them. *: point of attachment. Cbz = O=C(OCc1ccccc1)*
What was measured:
clinical PCLS tissues = assay: FPS/PLS response (CES, nCounter) in organotypic ex vivo culture of clinical PCLS tissues; type: cell-based, human; details: for FPS response rate (number of responding patients): count of patients with CES-based FPS response; for FPS response rate (number of responding patients) / FPS response rate: PCLS cultured 24 h with agent vs vehicle; for PLS response rate (number of responding patients): count of patients with PLS response; for PLS response rate (number of responding patients) / PLS response rate: ex vivo PCLS culture; for modulation of SLC7A1 (CAT1): drug-level FPS gene modulation in ex vivo PCLS culture; for FPS response rate: percent of patients tested with CES-based FPS response; for PLS response rate: percent of patients tested with PLS response
Description: (§1) Evaluation of galunisertib, erlotinib, AM095, bortezomib, pioglitazone, metformin, epigallocatechin gallate (EGCG), I-BET 151, JQ1, captopril, nizatidine (Selleck Chemicals); MG-132 (Sigma-Aldrich); cenicriviroc (AbbVie) (Table 2) were done in organotypic ex vivo culture of precision-cut liver slice (PCLS) tissues in the FPS validation set 2 as previously described. Patient-derived liver cell spheroids were generated from a cirrhosis patient and high-risk FPS was induced by free fatty acids, and treated with EGCG, bortezomib, cenicriviroc, and/or bezafibrate for 48 h. Mycoplasma-free human hepatic myofibroblast cell lines, LX-2 and TWNT-4, were cultured with MG-132 (20 μM) or DMSO control for 12 and 24 h in triplicates.
(§2) Total RNA was isolated from fixed tissue sections by using High Pure RNA Paraffin kit (Roche), and assessed for quality by qRT-PCR of RPL13A. Total RNA from the PCLS tissues was isolated using RNeasy kit (Qiagen). RNA samples (100-200 ng) were subjected to the PLS/FPS assay implemented in the nCounter platform (NanoString), and transcriptome profiling of the CENTAUR trial samples was performed by RNA-Seq (TrueSeq RNA Access, Illumina). Expression of BCL2, COL1A1, and ACTA2 genes was measured by qRT-PCR (Table 3). Serum protein profiling was performed by using xMAP assay (Luminex).
Total RNA was isolated from three to five 10-μm-thick formalin-fixed paraffin-embedded (FFPE) tissue sections from the PLS/FPS derivation/validation cohorts by using High Pure RNA Paraffin kit (Roche), and lack of severe RNA fragmentation was confirmed by qRT-PCR of a housekeeping gene RPL13A as previously described.^1 From freshly harvested myofibroblast cell lines, LX-2 and TWNT-4, and clinical precision-cut-liver slice (PCLS) tissues stored in RNAlater (ThermoFisher) at −80?C, total RNA was isolated using RNeasy kit (Qiagen), and the RNA integrity number (RIN)>8 by Bioanalyzer (Agilent) was regarded as sufficient quality for expression analysis. Total RNA samples (100 to 500 ng) were subjected to the gene signature assays implemented in the digital transcript counting technology (NanoString) according to manufacturer's instruction. Poor quality profiles were detected based on maximum signal intensity from positive control probes <3,000U. Raw transcript count data were log-transformed (base 2) and scaled by geometric mean of control probe data by using NanoString normalizer module implemented in GenePattern data analysis suite (www.broadinstitute.org/genepattern). Genome-wide transcriptome profiling of the CENTAUR trial samples was performed using 100 to 200 ng total RNA by RNA-Seq using exome-enriched library preparation according to the manufacturer's protocol (TrueSeq, Illumina). Raw sequencing reads were mapped onto the reference human genome (hg19) by using the STAR aligner (ver. 2.6.1b) followed by the read counting on genes via featureCounts in the Subread package (ver. 1.6.1). The raw read counts were further normalized by using the Relative Log Expression (RLE) implemented in the DESeq2 package (ver. 1.22.2). Expression of COL1A1, and ACTA2, and BCL2 genes was measured by qRT-PCR (BioRad) using ddCt method with RPL13A as housekeeping gene, as previously described (refer Table 3 for the primer sequences). Gene expression profiles of the PLS/FPS-inducible cell culture model (cell-culture-derived PLS [cPLS] system) treated with erlotinib, pioglitazone, captopril, and resveratrol were obtained from our previous study (GSE81801).

[1] = test system: biliary fibrosis induced by bile duct ligation; details: bile duct ligation in mice; cited from earlier work
[2] = test system: PCLS tissue from a chronic hepatitis C patient with F2 fibrosis; assay: Validation of combination therapies by liver fibrosis gene panel in ex vivo culture of a clinical fibrotic PCLS tissue; type: cell-based, human; details: agent added to EGCG
Description: as §1
To test this idea, synergistic effect of the agents to shift the FPS from high- to low-risk pattern was computationally inferred, i.e., suppression of the high-risk genes and/or induction of the low-risk genes (see materials and methods).

TWNT-4 = assay: MG-132 effect on COL1A1, ACTA2 and BCL2 expression (qRT-PCR) in TWNT-4; type: cell-based, human; details: MG-132 20 μM vs DMSO, 12 and 24 h
Description: as §1
as §2, with “(Luminex). […]” for “(Luminex).”

LX-2 = assay: MG-132 effect on COL1A1, ACTA2 and BCL2 expression (qRT-PCR) in LX-2; type: cell-based, human; details: MG-132 20 μM vs DMSO, 12 and 24 h
Description: as §1
as §2, with “(Luminex). […]” for “(Luminex).”

clinical PCLS tissue = assay: Immunostaining of cleaved caspase-3, alpha-SMA and GFAP in PCLS tissues cultured with MG-132 or DMSO; type: cell-based, human; details: PCLS tissues cultured with MG-132 vs DMSO, five patients
Experimental: FIG. 4A depicts a co-expression gene network defined in the FPS derivation set 1 to 4. Hub genes are indicated with larger nodes. Synthesized association with time to fibrosis progression (Fisher's inverse chi-square statistic) in the FPS derivation set 1 and 2 is shown by red (poor outcome) to blue (good outcome) color scale. […] All assays were performed in triplicates. Green dotted line indicates expression level of the DMSO-treated control. […] Paired tissues from the same patient are connected with a line. Wilcoxon signed-rank test p-value is shown. […] Scale bars indicate 50 μm and 25 μm for upper and lower panels, respectively. […] Scale bars indicate 100 μm. […] NES: normalized enrichment score. FDR: false discovery rate.
Immunostaining was performed for caspase-3 (Asp175) (5A1E, Cell Signaling), alpha-SMA (Abcam), Desmin (DAKO), GFAP (abcam), and Ki-67 (Abcam). TUNEL staining was performed using ApopTag Peroxidase In Situ Apoptosis Detection Kit (EMD Millipore).

[3] = test system: human precision-cut liver slice (PCLS); assay: MG-132 effect on COL1A1, ACTA2 and BCL2 expression (qRT-PCR) in ex vivo PCLS culture; type: cell-based; details: PCLS from two patients, HCV (F1) and NAFLD (F2); vs DMSO
Description: as §1
as §2, with “(Luminex). […]” for “(Luminex).”

Structure (SMILES)	FPS response rate (number of responding patients) (clinical PCLS tissues)	PLS response rate (number of responding patients) (clinical PCLS tissues)	modulation of SLC7A1 (CAT1) (clinical PCLS tissues)	also measured
Cc1noc(-c2ccc(-c3ccc(CC(=O)O)cc3)cc2)c1NC(=O)O[C@H](C)c1ccccc1 [AM095]	11	8	similarly striking suppression	FPS response rate (clinical PCLS tissues): 38%; PLS response rate (clinical PCLS tissues): 27.59%
CC(C)C[C@H](NC(=O)[C@H](Cc1ccccc1)NC(=O)c1cnccn1)B(O)O [Bortezomib]	4	5		myofibroblast activation and biliary fibrosis [1]: reduced myofibroblast activation and inhibit biliary fibrosis; expression of genes encoding extracellular matrix proteins (COL1A1, HAS2) and fibrogenic drivers (PDGFRB, TGFB1, NOTCH1, LPAR1) [2]: substantially reduced expression
O=C(O[C@@H]1Cc2c(O)cc(O)cc2O[C@@H]1c1cc(O)c(O)c(O)c1)c1cc(O)c(O)c(O)c1 [Epigallocatechin gallate]	7	9		FPS response rate (clinical PCLS tissues): 64%; PLS response rate (clinical PCLS tissues): 81.82%
C#Cc1cccc(Nc2ncnc3cc(OCCOC)c(OCCOC)cc23)c1 [Erlotinib]	11	13		
Cc1cccc(-c2nn3c(c2-c2ccnc4ccc(C(N)=O)cc24)CCC3)n1 [Galunisertib]	6	7	similarly striking suppression	
CC(C)C[C@@H](C=O)NC(=O)[C@H](CC(C)C)NC(=O)[C@H](CC(C)C)NC(=O)OCc1ccccc1 [MG132] (Cbz-Leu-Leu-Leu-aldehyde)	6	3		expression of COL1A1, ACTA2 and BCL2 (TWNT-4): suppression; myofibroblast activation and biliary fibrosis [1]: reduced myofibroblast activation and inhibit biliary fibrosis; expression of COL1A1, ACTA2 and BCL2 (LX-2): suppression; expression of genes encoding extracellular matrix proteins (COL1A1, HAS2) and fibrogenic drivers (PDGFRB, TGFB1, NOTCH1, LPAR1) [2]: substantially reduced expression; cleaved-caspase-3-positive cells (apoptosis induction) (clinical PCLS tissue): increased; modulation of high-risk FPS genes (gene set enrichment analysis) (clinical PCLS tissues; clinical fibrotic PCLS tissues, ex vivo MG-132, FDR≤0.008): significantly suppressed; expression of COL1A1, ACTA2 and BCL2 [3]: reduced expression
CN(C)C(=N)N=C(N)N [Metformin]	7	6	similarly striking suppression	
CNC(=C[N+](=O)[O-])NCCSCc1csc(CN(C)C)n1 [Nizatidine]	3	3		
CCc1ccc(CCOc2ccc(CC3SC(=O)NC3=O)cc2)nc1 (stereo not shown) [Pioglitazone]	6	7		
